This assay concerns the target Protein farnesyltransferase (Homo sapiens, UniProt P49354+P49356). The experiment in a line: Inhibition of human recombinant FTase activity using dansyl-GCVLS-peptide. It counts as protein-complex assay.

A word on the IC50: it is the concentration at which inhibition is half-maximal. `CN(C)c1cc[n+](C(C=C(C#N)C#N)C(=O)N2c3ccccc3Sc3ccc(Cl)cc32)cc1` (stereo not drawn): the IC50 amounted to 3.18 µM.

For `CCOC(=O)/C(C#N)=C/C(C(=O)N1c2ccccc2Sc2ccc(Cl)cc21)[n+]1ccc(N(C)C)cc1` (stereo not drawn), the IC50 is 4.92 µM.

As for `N#CC(C#N)=CC(C(=O)N1c2ccccc2Sc2ccccc21)[n+]1ccccc1` (stereo not drawn), the IC50 was found to be 13.1 µM.

Consider `CCOC(=O)/C(C#N)=C/C(C(=O)N1c2ccccc2Sc2ccccc21)[n+]1ccccc1` (stereo not drawn), for which the IC50 was found to be 15 µM.

In the case of `Cc1ccc[n+](C(C=C(C#N)C#N)C(=O)N2c3ccccc3Sc3ccccc32)c1` (stereo not drawn), the IC50 turned out to be 11 µM.

As for `CCOC(=O)/C(C#N)=C/C(C(=O)N1c2ccccc2Sc2ccccc21)[n+]1cccc(C)c1` (stereo not drawn), the IC50 was 7.01 µM.

In the case of `COc1cc[n+](C(C=C(C#N)C#N)C(=O)N2c3ccccc3Sc3ccccc32)cc1` (stereo not drawn), the IC50 came to 10.3 µM.

On to `CCOC(=O)/C(C#N)=C/C(C(=O)N1c2ccccc2Sc2ccccc21)[n+]1ccc(OC)cc1` (stereo not drawn), for which the IC50 is 13.7 µM.

`Cc1cc(C)c[n+](C(C=C(C#N)C#N)C(=O)N2c3ccccc3Sc3ccccc32)c1` (stereo not drawn): the IC50 was 6.36 µM.

As to `CCOC(=O)/C(C#N)=C/C(C(=O)N1c2ccccc2Sc2ccccc21)[n+]1cc(C)cc(C)c1` (stereo not drawn), the IC50 worked out at 7.27 µM.

For the molecule `N#CC(C#N)=CC=C1C=CN(CC(=O)N2c3ccccc3Sc3ccccc32)C=C1`, the IC50 is 0.65 µM.

As to `CCOC(=O)/C(C#N)=C\C=C1C=CN(CC(=O)N2c3ccccc3Sc3ccccc32)C=C1`, the IC50 was found to be 0.63 µM.

In the case of `N#CC(C#N)=C/C=C1\C=CC=CN1CC(=O)N1c2ccccc2Sc2ccccc21`, the IC50 turned out to be 1.2 µM.

Take `CCOC(=O)/C(C#N)=C\C=C1/C=CC=CN1CC(=O)N1c2ccccc2Sc2ccccc21`: the IC50 was 1.07 µM.

Consider `CCOC(=O)/C(C#N)=C\C=C1C=CN(CC(=O)N(CC)CC)C=C1`, for which the IC50 came to 43.1 µM.

On to `CN(C)c1cc[n+](C(C=C(C#N)C#N)C(=O)N2c3ccccc3Sc3ccccc32)cc1` (stereo not drawn), for which the IC50 was determined as 4.67 µM.

Take `CCOC(=O)/C(C#N)=C/C(C(=O)N1c2ccccc2Sc2ccccc21)[n+]1ccc(N(C)C)cc1` (stereo not drawn): the IC50 is 5.33 µM.

For the molecule `CN(C)c1cc[n+](C(/C=C/C(=O)O)C(=O)N2c3ccccc3Sc3ccccc32)cc1` (stereo not drawn), the IC50 came to 86.5 µM.
